Test results from patent publication US20140128418A1, “PYRAZOLE DERIVATIVES, PREPARATION METHOD THEREOF, AND COMPOSITION FOR PREVENTING AND TREATING OSTEOPOROSIS CONTAINING SAME” (EWHA UNIVERSITY-INDUSTRY COLLABORATION FOUNDATION, priority 2011, published 2014).

Key:
[1] = test system: differentiation of macrophages into osteoclasts; experiment: Inhibitory effect on differentiation of macrophages into osteoclasts (rhM-CSF/RANKL, TRAP staining); type: cell-based, mice (C57BL/6J); settings: mouse bone marrow macrophages, rhM-CSF 30 ng/mL + RANKL 200 ng/mL, 5 days, light microscope, Examples 2, 3, 7, 8, 9, 11 tested against Comparative Example 1 as control, FIGS. 1 to 6
Procedure: Bone marrow cells were harvested from 4 to 5-week old male mice (C57BL/6J). Specifically, mice were sacrificed by cervical dislocation, and femur and tibia were extracted while removing muscles adhered around the bone with scissors and soaked in phosphate buffered saline (PBS). A 1 mL syringe filled with α-minimum essential medium (α-MEM) was put into one end of the femur and tibia from which bone marrow cells were then harvested.
The bone marrow cells were cultured to obtain macrophages. Specifically, the obtained bone marrow cells were placed in a 50 mL tube and centrifuged at 1500 rpm for 5 minutes. Then, the supernatant was removed, and a 3:1 mixture of a Gey's solution and PBS was added and maintained at room temperature for about 2 to 3 minutes. After another centrifugation (1500 rpm, 5 minutes), the supernatant was removed, α-MEM was added, followed by stirring, and then the cells were cultured in a 10 cm cell culture dish at 37° C. for 24 hours. After the third centrifugation (1500 rpm, 5 minutes), the supernatant was removed, a culture medium and a macrophage differentiation factor rhM-CSF (30 ng/mL) were added, and then the cells were cultured in a 10 cm cell culture dish at 37° C. for 3 days. After 3 days, macrophages adhered to the dish were scraped and collected in a tube, followed by centrifugation (1500 rpm, 5 minutes). […]

[2] = test system: bone loss induced by ovariectomy; experiment: Inhibitory effect on bone loss induced by ovariectomy in ovariectomized mouse models (tibia, μ-CT, TRAP staining); type: in vivo, female mice; settings: ovariectomized mice, intraperitoneal for 3 weeks at intervals of 2 days, versus control group 1 (ovariectomy)
Text: In order to examine the inhibitory effects of the compounds on the bone loss induced by ovariectomy in ovariectomized mouse models, 8-week old female mice were divided into control groups 1 and 2 and experimental group 1, each containing 5 mice.
The mice in control group 1 and experimental group 1 were subjected to ovariectomy via laparotomy, and the mice in control group 2 were subjected to laparotomy in the same manner as in control group 1 and experimental group 1, but without ovariectomy, and served as a sham control.
The compound of Example 13 was intraperitoneally administered to the mice of experimental group 1 for 3 weeks at intervals of 2 days after 7 days of recovery from the surgery. After verification of excision of ovary of mice, both tibiae were harvested from the mice of experimental group 1 and control groups 1 and 2, and cross-sections were consecutively imaged using μ-CT (Skyscan 1076, SKYS CAN N. V.) and V-works program (Cybermed) and reconstructed into 3-dimensional images. Then, the bone volume, bone density, and the number of trabecular bones were quantified using an image analysis program.
The experimental results and statistical analysis using ANOVA (one-way analysis of variance) if verify the Newman kulseu (Newman-Keuls test) significance is verified using the […] level or less, a significance test was performed.
In FIG. 9, the bone volume is expressed as a percentage (BV/TV %) of the bone volume (BV) of the harvested tibia to the total bone volume (TV), and in FIG. 11, the number of trabecular bones is expressed as the number of trabecular bones) per 1 millimeter (mm).
Moreover, the harvested tibiae were placed in PBS, formaldehyde added, and fixed for 24 hours and then decalcified in PBS to which was added 0.5 M EDTA. […] Moreover, the number of osteoclasts was analyzed under a microscope using the Osteomeasure software program (Osteometrics Inc., USA), and the results are shown in FIG. 13, in which the quantification of osteoclasts is expressed as the number of osteoclasts per bone surface 1 millimeter (mm). […]

Row | SMILES | differentiation of macrophages into osteoclasts [1] | reduction in bone volume of the tibia (BV/TV %) ([2]; FIG. 9) | bone density of the tibia ([2]; FIG. 10) | number of trabecular bones (per 1 mm) ([2]; FIG. 11)
1 | Oc1cc(-c2ccccc2)nn1-c1ccccn1 [Comparative Example 1, 3-phenyl-1-(pyridin-2-yl)-1H-pyrazol-5-ol] | more macrophages differentiated into osteoclasts |  |  | 
2 | COc1cc(/C=C/c2nn(-c3ccccn3)c(O)c2Cc2ccccc2)ccc1O [Example 13, 1-(pyridin-2-yl)-3-[(3-methoxy-4-hydroxyphenyl)-E-ethenyl]-4-benzyl-1H-pyrazol-5-ol] |  | less than that in control group 1 | higher | higher
